Series [1] concerns venous thrombosis. The series can be described thus: Venous thrombosis test in the rat (Wessler venous stasis under hypercoagulation with factor Xa), oral administration. Type of series: in vivo. The conditions noted are these: Rattus norvegicus, Wistar male rats, dose 6 mg/kg, thrombosis induced 2 h after administration, read-out: Oral activity: Activity (percentage inhibition of thrombus formation). The protocol: The antithrombotic activity of the compounds according to the invention was studied in vivo in the rat by means of a test that reproduces a venous thrombosis. The venous thrombosis was induced according to the protocol described in Thromb. Haemost., 1992, 67(1), 176-179. The oral activity was studied according to the following operating protocol: The experiments are performed on non-fasted Wistar male rats weighing 250 to 280 g, divided into groups of 10 animals each. The test products are administered orally (tubage) dissolved or suspended in a solution of methyl cellulose (0.5% in water). […] To induce this thrombosis, a venous stasis is created under hypercoagulation according to the technique described by WESSLER (J. Applied Physiol., 1959, 943-946), the hypercoagulating agent used being a solution of activated factor X (Xa) having a concentration of 7.5 nKat/kg, supplied by Biogenic (Montpellier). The venous stasis is effected exactly 10 seconds after injection of the hypercoagulating agent. The activity of the test compounds was checked at different doses after they had been administered.

As usually defined, the melting point is the temperature, or range, at which the solid turns liquid.

`Cc1cc(F)ccc1-c1cncc(O[C@@H]2SC[C@@H](O)[C@H](O)[C@H]2O)c1` [Example 61, 5-(4-fluoro-2-methylphenyl)-3-pyridinyl 5-thio-β-D-xylopyranoside] registered a melting point of 217 °C. In addition, in series [1], the inhibition in vivo at 6 mg/kg came to 98%.
